Assay results taken from ChEMBL document CHEMBL1201862, “PubChem BioAssay data set” (2004).
The source made the active and inactive calls.

Assays:
[1] = biological target: Glucose-6-phosphate 1-dehydrogenase (Homo sapiens, UniProt P11413); experiment: inhibition of Homo sapiens G6PD, dose series – biochemical, fluorescence, selectivity assay for P. falciparum G6PD inhibitor project, dose response (AID 504792); format: functional
[2] = biological target: T1, Histone-lysine N-methyltransferase NSD2 (Homo sapiens, UniProt O96028); format: biochemical
T1 sequence (O96028 whole entry): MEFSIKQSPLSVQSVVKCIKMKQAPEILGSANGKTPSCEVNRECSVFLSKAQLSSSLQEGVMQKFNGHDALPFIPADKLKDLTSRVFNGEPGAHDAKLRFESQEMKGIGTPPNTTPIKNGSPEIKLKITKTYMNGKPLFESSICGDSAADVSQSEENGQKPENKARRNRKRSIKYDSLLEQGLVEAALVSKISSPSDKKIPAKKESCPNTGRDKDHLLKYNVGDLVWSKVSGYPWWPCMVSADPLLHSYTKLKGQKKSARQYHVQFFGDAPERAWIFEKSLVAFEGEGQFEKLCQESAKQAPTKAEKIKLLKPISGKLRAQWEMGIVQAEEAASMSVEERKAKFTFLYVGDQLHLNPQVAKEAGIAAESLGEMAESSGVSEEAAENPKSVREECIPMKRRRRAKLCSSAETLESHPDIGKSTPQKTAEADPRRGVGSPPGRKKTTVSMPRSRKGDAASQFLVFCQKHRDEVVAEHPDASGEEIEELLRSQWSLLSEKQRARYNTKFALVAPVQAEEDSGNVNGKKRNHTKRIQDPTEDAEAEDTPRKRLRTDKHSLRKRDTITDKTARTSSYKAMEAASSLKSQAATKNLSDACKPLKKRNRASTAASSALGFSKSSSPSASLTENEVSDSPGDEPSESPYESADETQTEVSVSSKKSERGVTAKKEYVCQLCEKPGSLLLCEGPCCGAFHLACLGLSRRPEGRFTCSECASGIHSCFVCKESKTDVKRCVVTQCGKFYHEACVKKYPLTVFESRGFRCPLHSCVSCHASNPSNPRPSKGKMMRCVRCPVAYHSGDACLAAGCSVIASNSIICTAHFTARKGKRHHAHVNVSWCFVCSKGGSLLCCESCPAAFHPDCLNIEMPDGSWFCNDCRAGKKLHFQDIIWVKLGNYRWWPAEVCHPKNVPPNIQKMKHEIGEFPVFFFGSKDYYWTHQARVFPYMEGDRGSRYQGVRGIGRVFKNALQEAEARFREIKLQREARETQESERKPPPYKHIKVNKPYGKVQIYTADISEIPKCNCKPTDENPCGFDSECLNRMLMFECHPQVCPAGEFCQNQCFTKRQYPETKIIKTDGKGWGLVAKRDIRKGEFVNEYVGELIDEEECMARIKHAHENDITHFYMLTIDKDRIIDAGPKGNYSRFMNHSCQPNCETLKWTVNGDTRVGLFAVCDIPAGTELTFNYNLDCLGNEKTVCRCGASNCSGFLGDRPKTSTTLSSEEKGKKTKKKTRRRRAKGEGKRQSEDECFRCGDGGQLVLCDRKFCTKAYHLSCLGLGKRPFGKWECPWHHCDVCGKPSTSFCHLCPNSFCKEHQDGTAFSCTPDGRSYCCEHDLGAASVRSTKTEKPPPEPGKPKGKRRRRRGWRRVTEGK

[3] = biological target: T2, DNA repair protein RAD52 homolog (Homo sapiens, UniProt P43351); format: functional, biochemical
T2 sequence (P43351 whole entry): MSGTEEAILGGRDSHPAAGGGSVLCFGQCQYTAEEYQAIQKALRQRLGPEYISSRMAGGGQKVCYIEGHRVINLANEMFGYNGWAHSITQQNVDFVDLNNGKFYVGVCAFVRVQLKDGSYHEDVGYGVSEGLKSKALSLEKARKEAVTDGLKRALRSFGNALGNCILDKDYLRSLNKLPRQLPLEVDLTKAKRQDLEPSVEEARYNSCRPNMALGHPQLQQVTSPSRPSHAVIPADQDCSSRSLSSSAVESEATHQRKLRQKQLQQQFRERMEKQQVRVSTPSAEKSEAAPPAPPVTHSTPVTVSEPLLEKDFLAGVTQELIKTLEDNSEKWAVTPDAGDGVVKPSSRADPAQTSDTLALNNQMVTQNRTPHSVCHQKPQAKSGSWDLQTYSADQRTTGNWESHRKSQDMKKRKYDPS

[4] = biological target: Nonstructural protein 1 (Influenza A virus, UniProt Q194T2); format: functional, Influenza A virus (A/California/07/2009(H1N1))
[5] = THP-1 cell cytotoxicity, dose response, cytotoxicity control for non-replicating M. tuberculosis project (AID 489025); format: functional
[6] = cells; format: functional
[7] = NIH-3T3 fibroblast cytotoxicity, dose response, cytotoxicity control, cell-based, fluorescence, Alamar Blue, secondary assay (AID 2327); format: functional;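 also: NIH-3T3 mouse fibroblasts cultured with fluconazole at 8 µg/mL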
[8] = fluconazole-exposed Candida albicans growth modulators – fluorescence, retest, confirmation (AID 2467); format: functional, cell-based
[9] = A cytotoxicity screen of small molecule inhibitors of the PhoP region in Salmonella typhi identified in the primary screen. [Related pubchem assays: 1850, 1864, 1985 ]; format: functional
[10] = biological target: Glyceraldehyde-3-phosphate dehydrogenase (Homo sapiens, UniProt P04406)
[11] = biological target: T3, Ubiquitin-conjugating enzyme E2 N (Homo sapiens, UniProt P61088); format: functional;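 also: Dose-response confirmation in a TR-FRET assay detecting UBC13-driven polyubiquitin chain formation, inhibition measured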
T3 sequence (P61088 whole entry): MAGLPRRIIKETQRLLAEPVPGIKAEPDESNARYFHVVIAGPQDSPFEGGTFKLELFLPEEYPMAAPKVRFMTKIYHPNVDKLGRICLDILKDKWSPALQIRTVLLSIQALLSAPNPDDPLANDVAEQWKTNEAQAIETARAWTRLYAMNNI

[12] = blockers of HIV-1 ZM109 envelope-driven cell-cell fusion – HeLa effector, CEM target cells, luciferase, cherry-pick, dose response (AID 652058); format: functional, cell-based;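 also: luciferase signal from HIV-1 Env mediated cell-cell fusion of effector and target cells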
[13] = off-target signal loss in HeLa-CEM21 co-culture – HeLa F-luc CTL cells, cherry-picked, counter-screen for HIV-1 Env fusion inhibitor project, dose response (AID 652040); format: functional, cell-based;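 also: potency for signal decrease marking cytotoxic or nonspecific inhibition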
[14] = HIV-1 AD8 envelope cell-cell fusion blockers – cherry-pick, dose response (AID 652062); format: functional, cell-based;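 also: luciferase signal from cell-cell fusion driven by HIV-1 clade B AD8 Env; potency is for inhibitors of fusion seen as a drop in luminescence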
[15] = blockers of HIV-1 envelope-mediated cell-cell fusion – cherry-pick, dose response (AID 652057); format: functional, cell-based
[16] = biological target: Paired box protein Pax-8 (Homo sapiens, UniProt Q06710); experiment: PAX8 transcriptional activity inhibition in RMG-I – RMG-I cells, luciferase, cherry-pick, dose response (AID 687027); format: functional, cell-based;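 also: luciferase reporter driven by Pax8 target thyroperoxidase promoter measured by SteadyGlo luminescence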
Paired box protein Pax-8, sequence (Q06710 whole entry): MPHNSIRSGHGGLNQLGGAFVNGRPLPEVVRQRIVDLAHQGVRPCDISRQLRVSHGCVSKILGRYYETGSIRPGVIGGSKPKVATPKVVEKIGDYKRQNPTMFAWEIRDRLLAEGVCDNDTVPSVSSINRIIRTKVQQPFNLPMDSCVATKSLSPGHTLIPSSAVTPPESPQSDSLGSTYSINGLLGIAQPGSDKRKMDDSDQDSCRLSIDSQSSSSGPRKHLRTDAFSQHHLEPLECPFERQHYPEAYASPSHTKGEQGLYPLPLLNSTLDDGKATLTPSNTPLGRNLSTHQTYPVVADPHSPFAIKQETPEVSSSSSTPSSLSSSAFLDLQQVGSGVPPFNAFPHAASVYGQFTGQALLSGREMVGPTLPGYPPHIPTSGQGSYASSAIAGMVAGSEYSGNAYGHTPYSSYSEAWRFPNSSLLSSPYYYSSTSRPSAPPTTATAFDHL

Glucose-6-phosphate 1-dehydrogenase, sequence (P11413 whole entry): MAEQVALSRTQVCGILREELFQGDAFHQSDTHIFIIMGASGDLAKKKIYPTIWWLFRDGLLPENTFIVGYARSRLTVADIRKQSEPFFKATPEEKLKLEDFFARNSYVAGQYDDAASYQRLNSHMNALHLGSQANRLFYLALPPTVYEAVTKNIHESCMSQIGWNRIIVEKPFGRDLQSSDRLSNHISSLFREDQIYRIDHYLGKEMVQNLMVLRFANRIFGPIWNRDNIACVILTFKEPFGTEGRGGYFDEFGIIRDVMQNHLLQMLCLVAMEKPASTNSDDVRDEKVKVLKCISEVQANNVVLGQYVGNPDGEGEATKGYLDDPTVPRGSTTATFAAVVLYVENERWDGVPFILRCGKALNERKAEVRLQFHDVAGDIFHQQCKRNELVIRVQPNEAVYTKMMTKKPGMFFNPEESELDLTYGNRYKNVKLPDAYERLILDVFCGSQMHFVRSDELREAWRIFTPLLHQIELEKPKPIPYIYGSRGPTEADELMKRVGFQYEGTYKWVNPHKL
Nonstructural protein 1, sequence (Q194T2 whole entry): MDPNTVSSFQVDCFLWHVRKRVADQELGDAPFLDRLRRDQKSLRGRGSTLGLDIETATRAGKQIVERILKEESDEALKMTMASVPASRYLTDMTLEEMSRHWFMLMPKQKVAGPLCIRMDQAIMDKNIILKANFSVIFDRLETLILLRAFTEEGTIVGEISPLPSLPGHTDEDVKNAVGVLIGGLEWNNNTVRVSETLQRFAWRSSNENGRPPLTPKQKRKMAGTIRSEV
Glyceraldehyde-3-phosphate dehydrogenase, sequence (P04406 whole entry): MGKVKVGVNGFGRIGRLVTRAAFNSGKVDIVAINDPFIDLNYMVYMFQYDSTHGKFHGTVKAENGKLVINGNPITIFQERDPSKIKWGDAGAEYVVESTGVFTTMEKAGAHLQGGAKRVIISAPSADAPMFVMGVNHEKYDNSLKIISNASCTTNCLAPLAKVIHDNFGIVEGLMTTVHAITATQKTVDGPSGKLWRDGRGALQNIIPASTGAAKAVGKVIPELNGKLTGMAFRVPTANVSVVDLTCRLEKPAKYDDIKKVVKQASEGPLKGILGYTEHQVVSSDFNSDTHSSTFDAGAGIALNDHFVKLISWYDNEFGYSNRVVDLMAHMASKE

COc1cc(NCc2ccccc2)c2ncn(Cc3ccccc3)c2c1
IC50 [1]: > 80 µM (inactive)

CNCCCc1ccccc1
AC50 [2]: > 20 µM (inactive)

CCOc1ccc2[nH]c3c(c2c1)CNCC3
AC50 [3]: 26.8 µM (active)

CCCN(CCC)CCNC(=O)c1cc2c(-c3ccccc3F)nn(C)c2s1
AC50 [2]: > 20 µM (inactive)

COc1ccccc1NC(=O)CSc1ccc(-c2ccccn2)nn1
IC50 [4]: 7.99 µM (active)

CCc1ccc(Cc2cnc(NC(=O)C3=NCCN3)s2)cc1
CC50 [5]: > 40 µM (active) | IC50 [6]: 9.25 µM (active)

COCc1cc(CN2CCN(C)CC2)c(O)c2ncccc12
EC50 [7]: > 160 µM (inactive) | IC50 [4]: 4.15 µM (active) | EC50 [8]: > 38 µM (not active)

O=C(CCCOc1ccccc1)OCn1nnc2ccccc2c1=O
IC50 [6]: 3.55 µM (active)

Cc1cccc(C(=O)Nc2nnc(S(=O)(=O)N3CCOCC3)s2)c1
IC50 [1]: 54.4 µM (inactive)

COc1ccccc1NC(=O)Cn1nc(-c2ccncc2)nc1SCC(=O)NC1CCCC1
EC50 [9]: > 50 µM (active)

CC1CCCCN1S(=O)(=O)c1ccc(S(=O)(=O)NCCc2ccncc2)cc1 (centres undefined)
EC50 [9]: > 50 µM (active)

COc1cccc(NC(=O)CSc2nn3c(=O)c(C)nnc3s2)c1
IC50 [4]: 11.3 µM (active)

CC(C)Cc1nc(N2CCOCC2)c(C#N)c2c1COC(C)(C)C2
EC50 [9]: > 50 µM (active)

O=C(CN1CCN(S(=O)(=O)c2ccc(Cl)cc2)CC1)c1ccc(O)c(O)c1
AC50 [2]: 4.91 µM (active)

O=C1C(Cl)=C(N2CCN(Cc3ccc4c(c3)OCO4)CC2)C(=O)N1c1cccc(C(F)(F)F)c1
IC50 [10]: > 50 µM (inconclusive)

COc1cccc(-c2nnc(SCC(=O)O)[nH]2)c1
IC50 [10]: > 100 µM (not active)

CC1(C)Cc2c(sc3nc4n(-c5ccccc5)c(=O)c(CCC(=O)O)nn4c(=O)c23)CO1
IC50 [1]: 34.1 µM (inactive)

CN(C)CCCN(C(=O)c1ccc(C(=O)c2ccccc2)cc1)c1nc2cc3c(cc2s1)OCO3
IC50 [11]: > 20 µM (inactive) | AC50 [3]: 7.81 µM (active)

CCOC(=O)COn1c(=O)c(-c2cccs2)[n+]([O-])c2ccccc21
EC50 [9]: > 50 µM (active)

CCc1ccc(NC(=O)Nc2ccncc2)cc1
EC50 [9]: > 50 µM (active)

COc1ccc(OC)c(CCNC(=O)CS(=O)(=O)Cc2nc(-c3ccccc3C)oc2C)c1
EC50 [9]: > 50 µM (active)

COc1ccc2c(c1)CC1c3c(cc4c(c3-2)OCO4)CC[N+]1(C)[O-] (centres undefined)
AC50 [3]: 3.38 µM (active)

CCN1CCCC1CNC(=O)c1ccc2c(c1)NC(=O)/C(=C\c1ccccc1F)S2 (centres undefined)
IC50 [1]: > 80 µM (inactive) | AC50 [3]: 6.33 µM (active)

C#CCOCCOCCOCCNc1nc(N2CCN(C(=O)Cn3cc(CCCN=C(N)N)nn3)CC2)nc(N2CCN(C(=O)[C@H](CCCCN)n3cc(CCCC)nn3)CC2)n1
AC50 [3]: 34 µM (active)

O=C(OCc1nnc(-c2ccccc2)o1)c1ccc(Br)o1
IC50 [6]: 20.1 µM (active)

CCN(C[C@H]1N[C@@](CC)(C(=O)OC)[C@H]2C(=O)N(Cc3ccccc3)C(=O)[C@@H]12)S(=O)(=O)c1ccc(C(F)(F)F)cc1
AC50 [12]: 1.3 µM (active) | AC50 [13]: 1.79 µM (active) | AC50 [14]: 2.16 µM (active) | AC50 [15]: 1.3 µM (active)

O=C(CN(c1cc(C(F)(F)F)ccc1Cl)S(=O)(=O)c1ccccc1)NCc1cccnc1
AC50 [12]: 3.01 µM (active) | AC50 [13]: 3.81 µM (active) | AC50 [14]: 5.21 µM (active) | AC50 [15]: 1.98 µM (active)

CCC(C)(C)NC(=O)C(c1ccc(C)cc1)N(CC1CCCO1)C(=O)c1csnn1 (centres undefined)
AC50 [12]: 2.82 µM (active) | AC50 [13]: 6.84 µM (active) | AC50 [14]: 7.81 µM (active) | AC50 [15]: 4.81 µM (active)

COC(=O)[C@@]1(Cc2ccccc2)[C@H]2C(=O)N(Cc3ccccc3)C(=O)[C@H]2[C@H]2CN=C(SCc3ccc(C#N)cc3)N21
AC50 [12]: 3.83 µM (active) | AC50 [13]: 4.57 µM (active) | AC50 [14]: 4.69 µM (active) | AC50 [15]: 2.07 µM (active)

COc1ccc([C@@H]2[C@@H]3C(=O)N(C(C)(C)C)C(=O)[C@@H]3[C@]3(CC(C)C)C(=O)N(c4cccc(F)c4)C(=O)N23)cc1
AC50 [12]: < 0.26 µM (active) | AC50 [13]: < 0.26 µM (active) | AC50 [14]: < 0.26 µM (active) | AC50 [15]: < 0.26 µM (active)

C/C(Cn1nnc([N+](=O)[O-])n1)=N\NC(=O)c1ccc(O)cc1
IC50 [1]: > 80 µM (inactive)

N#CC1C(=O)Nc2cccnc21 (centres undefined)
AC50 [2]: > 20 µM (inactive)

O=C(C[C@H]1CC[C@H]2[C@@H](COC[C@@H](O)CN2Cc2ccc(F)cc2)O1)NCc1ccccc1Cl
AC50 [16]: 23.7 µM (active)

CC(=O)O[C@H]1C[C@@H]2CC[C@@H]3[C@H](CC[C@@]4(C)[C@H]3C[C@H]([N+]3(C)CCCCC3)[C@@H]4OC(C)=O)[C@@]2(C)C[C@@H]1[N+]1(C)CCCCC1 [PANCURONIUM BROMIDE]
AC50 [3]: 8.3 µM (active)
